From US8901118B2, “Compounds and methods for kinase modulation, and indications therefor” (Plexxikon Inc., priority 2010, dated 2014)

Columns and labels:
[1] = biological target: T1, BCR-NTRK3 BaF3 cells (Homo sapiens, UniProt Q16288); test: BaF3 BCR-NTRK3 cell proliferation assay (ATPlite); format: cell-based; settings: read-out: Inhibition of Cell Proliferation IC50, BCR/BaF3 TrkC
T1 construct: fused on or other part: P11274 (Breakpoint cluster region protein)
Protocol: (§1) Compounds are assessed in a variety of cell based assays. For example BaF3 cells engineered with any of BCR-FMS, BCR-KIT, BCR-FLT3, BCR-NTRK1, BCR-NTRK2, and BCR-NTRK3, are used in cell proliferation assays to assess inhibitory activity of Fms, Kit, Flt-3, TrkA, TrkB, and TrkC, respectively. An MV-4-11 (leukemia) cell proliferation assay is used to assess inhibitory activity in Flt-3, and SKNSH (human neuroblastoma) cell proliferation assay is used to assess efficacy of Fms/Trk inhibitors. Additional cells may be assayed similarly to assess the efficacy of Fms/Trk inhibitors, such as MiaPaCa (human pancreatic cancer) and Capan-1 (human pancreatic carcinoma) cells. Reagent and assay conditions are as follows: • BaF3 cells: • Maintained in RPMI containing 10% FBS, 1% PenStrep, 1% NEAA, and 1% L-Glutamine, supplemented with 1 mg/mL G418 and 5% WEHI-CM (or recombinant murine IL-3). • Confluent cells are split 1:50 to 1:100 every 3-4 days. • MV-4-11 cells: • Maintained in Iscove's Modified Dulbecco's Medium containing 10% FBS. • Confluent cells are split 1:4 every 3-4 days. • SKNSH cells: RPMI containing 10% FBS. On day 1, cells are counted, then centrifuged in a conical tube for 5 minutes at 1000 rpm. The supernatant is removed and cells are re-suspended as follows: • BaF3: resuspend in growth media +1 mg/mL G418 (without WEHFIL-3) to 2×10^5 cells/mL. • MV-4-11: resuspend in growth media to 5×10^5 cells/mL. • SKNSH: resuspend in growth media to 2×10^4 cells/mL. The cells are plated (50 μL, 150 μL for SKNSH cells) in each well of a 96-well dish (Corning 3610) and incubated at 37° C. in 5% CO2 overnight, cells plated to a final concentration of cells as follows: • BaF3: 10,000 cells per well. • MV-4-11: 25,000 cells per well. • SKNSH: 3,000 cells per well. On day 2, compound at a maximum concentration of 5 mM is serially diluted 1:3 for a total of 8 point titration with DMSO as a control. A 1 μL aliquot of each dilution point is added to 249 μL growth media and 50 μL is added to a well containing cells, providing 10 μM compound for the maximum concentration point. The cells are incubated for 3 days at 37° C. in 5% CO2. For SKNSH cells, a 0.75 μL aliquot of appropriate dilution in DMSO is added to 150 μL of cells. On day 5, ATPlite 1 step Luminescence Assay System (Perkin Elmer #6016739) is brought to room temperature along with the cell cultures. ATPlite is added to each well as follows: • BaF3: 25 μL per well. • MV-4-11: 40 μL per well. • SKNSH: 20 μL per well. The cells are incubated at room temperature for 10 minutes, then luminescence is read on Safire reader. The measured luminescence correlates directly with cell number, such that the reading as a function of compound concentration is used to determine the IC50 value.
(§2) It is understood that the results of these assays may vary as assay conditions are varied. Inhibition levels determined under the conditions described herein represent a relative activity for the compounds tested under the specific conditions employed. The cell based assays are likely to show variability due to the complexity of the system and the sensitivity thereof to any changes in the assay conditions. […] Results for compounds that are tested and show substantially no inhibition below the highest tested concentration are represented as “-” in the tables below. In some instances, the compounds were not tested in all of the assays, or assay results were not valid, as indicated by NA in the tables below.

[2] = biological target: T2, BCR-FMS BaF3 cells (Homo sapiens, UniProt P07333); test: BaF3 BCR-FMS cell proliferation assay (ATPlite); format: cell-based; settings: read-out: Inhibition of Cell Proliferation IC50, BCR/BaF3 Fms
T2 construct: fused on or other part: P11274 (Breakpoint cluster region protein)
T2 sequence (P07333 582-910): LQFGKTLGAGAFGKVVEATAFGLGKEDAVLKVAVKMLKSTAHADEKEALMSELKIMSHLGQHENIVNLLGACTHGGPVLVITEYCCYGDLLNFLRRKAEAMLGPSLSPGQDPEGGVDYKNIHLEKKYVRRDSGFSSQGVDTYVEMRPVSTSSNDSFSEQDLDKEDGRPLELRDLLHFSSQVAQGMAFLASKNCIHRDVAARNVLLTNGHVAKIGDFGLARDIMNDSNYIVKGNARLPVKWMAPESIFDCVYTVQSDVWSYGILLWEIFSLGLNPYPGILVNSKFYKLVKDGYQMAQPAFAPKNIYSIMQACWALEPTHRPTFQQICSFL
Protocol: as §1, §2

[3] = biological target: Fms kinase (Homo sapiens, UniProt P07333); test: Fms kinase biochemical activity assay (AlphaScreen, biotin-(E4Y)10 phosphorylation); settings: 100 μM ATP; read-out: Biochemical Inhibition IC50 Fms
Protocol: In one assay the biochemical activity IC50 values are determined with respect to inhibition of Fms kinase activity, where inhibition of phosphorylation of a peptide substrate is measured as a function of compound concentration. Compounds to be tested, dissolved in DMSO (1 μL), are added to a white 384-well plate (Costar #3705). Working stocks of Fms kinase (Invitrogen #PV3249), biotin-(E4Y)10 substrate (Upstate Biotech, Cat#12-440), and ATP (Sigma, Cat#A-3377) are prepared in 25 mM Hepes pH 7.5, 0.5 mM MgCl2, 2 mM MnCl2, 2 mM DTT, 0.01% BSA, and 0.01% Tween-20. All components are added to the 384-well plate for a final concentration of 1 ng/well Fms, 30 nM biotin-(E4Y)10 (Upstate Biotechnology) and 100 μM ATP in a volume of 20 μL. Each sample is at 5% DMSO. The plate is then incubated for 20 minutes at 30° C. Just before use, working stocks of donor and acceptor beads from the AlphaScreen PY20 Detection Kit (PerkinElmer, Cat#676601M) are prepared in 25 mM Hepes pH 7.5, pH 7.4, 100 mM EDTA, 0.01% BSA. To stop the reaction, the plate is uncovered in the dark and 5 μL of Donor Beads solution (Streptavidin beads) is added to each well. The plate is incubated at room temperature for 20 minutes. Five microliters of Acceptor Beads solution (PY20 coated beads) are then added to each well. The final concentration of each bead is 10 μg/mL. The plates are incubated at room temperature for 60 minutes. Fluorescence signal is recorded on the Envision reader. Phosphorylated substrate results in binding of the PY20 antibody and association of the donor and acceptor beads such that signal correlates with kinase activity. The signal vs. compound concentration is used to determine the IC50.

Sequence of Fms kinase (P07333 20-972): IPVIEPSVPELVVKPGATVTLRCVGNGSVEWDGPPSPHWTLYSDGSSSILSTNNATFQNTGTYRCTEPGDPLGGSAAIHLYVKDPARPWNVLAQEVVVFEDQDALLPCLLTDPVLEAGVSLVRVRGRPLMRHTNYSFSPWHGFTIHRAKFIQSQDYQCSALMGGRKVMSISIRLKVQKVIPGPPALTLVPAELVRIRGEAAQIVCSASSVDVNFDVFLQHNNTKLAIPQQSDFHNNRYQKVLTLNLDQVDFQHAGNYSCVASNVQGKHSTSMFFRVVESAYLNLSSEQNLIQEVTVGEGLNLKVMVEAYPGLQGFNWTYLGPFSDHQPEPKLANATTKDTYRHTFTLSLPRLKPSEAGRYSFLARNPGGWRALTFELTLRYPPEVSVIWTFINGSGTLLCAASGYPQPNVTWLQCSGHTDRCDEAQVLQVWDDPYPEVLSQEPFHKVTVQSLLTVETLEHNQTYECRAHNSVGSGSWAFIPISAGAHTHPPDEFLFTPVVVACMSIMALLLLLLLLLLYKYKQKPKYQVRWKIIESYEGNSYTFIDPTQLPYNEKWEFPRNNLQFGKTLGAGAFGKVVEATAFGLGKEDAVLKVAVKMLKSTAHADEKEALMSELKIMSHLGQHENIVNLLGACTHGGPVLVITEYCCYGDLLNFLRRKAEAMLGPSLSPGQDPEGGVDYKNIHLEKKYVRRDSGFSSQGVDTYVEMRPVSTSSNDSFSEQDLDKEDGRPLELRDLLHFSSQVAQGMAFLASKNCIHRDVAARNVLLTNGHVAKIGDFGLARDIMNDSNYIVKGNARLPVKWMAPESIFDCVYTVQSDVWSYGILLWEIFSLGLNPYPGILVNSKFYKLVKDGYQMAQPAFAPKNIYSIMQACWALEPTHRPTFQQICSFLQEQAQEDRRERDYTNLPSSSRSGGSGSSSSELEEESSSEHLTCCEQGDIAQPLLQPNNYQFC
T1 sequence (Q16288 whole entry, the tested form may be a part): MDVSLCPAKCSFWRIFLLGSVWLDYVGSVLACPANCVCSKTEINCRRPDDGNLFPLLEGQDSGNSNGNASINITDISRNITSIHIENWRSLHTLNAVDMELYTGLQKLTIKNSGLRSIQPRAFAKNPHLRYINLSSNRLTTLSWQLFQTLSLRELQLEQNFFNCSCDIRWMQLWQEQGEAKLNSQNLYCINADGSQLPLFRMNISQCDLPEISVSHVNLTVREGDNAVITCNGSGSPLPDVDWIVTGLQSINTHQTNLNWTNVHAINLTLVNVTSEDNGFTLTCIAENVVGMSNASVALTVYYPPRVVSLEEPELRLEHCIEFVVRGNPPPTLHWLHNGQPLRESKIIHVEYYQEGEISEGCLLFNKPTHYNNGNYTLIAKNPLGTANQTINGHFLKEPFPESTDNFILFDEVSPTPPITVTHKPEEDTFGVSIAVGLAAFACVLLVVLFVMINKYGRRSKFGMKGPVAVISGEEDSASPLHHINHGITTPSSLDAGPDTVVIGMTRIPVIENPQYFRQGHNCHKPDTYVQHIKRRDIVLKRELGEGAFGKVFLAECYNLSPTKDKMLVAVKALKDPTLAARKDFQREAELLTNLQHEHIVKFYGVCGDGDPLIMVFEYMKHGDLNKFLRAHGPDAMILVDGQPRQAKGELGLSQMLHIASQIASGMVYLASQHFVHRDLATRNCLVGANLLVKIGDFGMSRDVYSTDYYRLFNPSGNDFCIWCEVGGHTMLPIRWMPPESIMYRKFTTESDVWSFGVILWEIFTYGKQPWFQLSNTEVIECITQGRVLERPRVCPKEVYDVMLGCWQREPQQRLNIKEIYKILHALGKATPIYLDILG

Structure (SMILES)	IC50 [1]	IC50 [2]	IC50 [3]
CCC(CC)Nc1ncnc2[nH]cc(C(=O)c3ccc(Nc4ccc(OC)nc4)nc3F)c12 [Compound P-4077, [4-(1-ethylpropylamino)-7H-pyrrolo[2,3-d]pyrimidin-5-yl]-[2-fluoro-6-[(6-methoxy-3-pyridyl)amino]-3-pyridyl]methanone]	< 10 nM	< 10 nM	< 100 nM
CCC(C)Nc1ncnc2[nH]cc(C(=O)c3ccc(Nc4ccc(OC)nc4)nc3F)c12 (stereo not drawn) [Compound P-4078, [2-fluoro-6-[(6-methoxy-3-pyridyl)amino]-3-pyridyl]-[4-(sec-butylamino)-7H-pyrrolo[2,3-d]pyrimidin-5-yl]methanone]	< 10 nM	< 10 nM	< 10 nM
COCCCNc1ncnc2[nH]cc(C(=O)c3ccc(Nc4ccc(OC)nc4)nc3F)c12 [Compound P-4079, [2-fluoro-6-[(6-methoxy-3-pyridyl)amino]-3-pyridyl]-[4-(3-methoxypropylamino)-7H-pyrrolo[2,3-d]pyrimidin-5-yl]methanone]	< 10 nM	< 100 nM	< 10 nM
CCCCNc1ncnc2[nH]cc(C(=O)c3ccc(Nc4ccc(OC)nc4)nc3F)c12 [Compound P-4080, [4-(butylamino)-7H-pyrrolo[2,3-d]pyrimidin-5-yl]-[2-fluoro-6-[(6-methoxy-3-pyridyl)amino]-3-pyridyl]methanone]	< 10 nM	< 100 nM	< 10 nM
CCNc1ncnc2[nH]cc(C(=O)c3ccc(Nc4ccc(OC)nc4)nc3F)c12 [Compound P-4081, [4-(ethylamino)-7H-pyrrolo[2,3-d]pyrimidin-5-yl]-[2-fluoro-6-[(6-methoxy-3-pyridyl)amino]-3-pyridyl]methanone]	< 10 nM	< 10 nM	< 10 nM
COc1ccc(Nc2ccc(C(=O)c3c[nH]c4ncnc(NC5CCCCC5)c34)c(F)n2)cn1 [Compound P-4082, [4-(cyclohexylamino)-7H-pyrrolo[2,3-d]pyrimidin-5-yl]-[2-fluoro-6-[(6-methoxy-3-pyridyl)amino]-3-pyridyl]methanone]	< 10 nM	< 10 nM	< 100 nM

Results, then the compound that gave them:

IC50 [1]	IC50 [2]	IC50 [3]	Structure (SMILES)
< 10 nM	< 100 nM	< 10 nM	CNc1ncnc2[nH]cc(C(=O)c3ccc(Nc4ccc(OC)nc4)nc3F)c12 [Compound P-4083, [2-fluoro-6-[(6-methoxy-3-pyridyl)amino]-3-pyridyl]-[4-(methylamino)-7H-pyrrolo[2,3-d]pyrimidin-5-yl]methanone]
< 100 nM	< 1000 nM	< 10 nM	CNc1ncnc2[nH]cc(C(=O)c3ccc(Nc4ccc(OC)nc4)nc3OC)c12 [Compound P-4085, [2-methoxy-6-[(6-methoxy-3-pyridyl)amino]-3-pyridyl]-[4-(methylamino)-7H-pyrrolo[2,3-d]pyrimidin-5-yl]methanone]
< 10 nM	< 1000 nM	< 100 nM	O=C(c1ccc(NC2CCC(F)(F)CC2)nc1)c1c[nH]c2ncnc(NCC(F)(F)F)c12 [Compound P-4087, [6-[(4,4-difluorocyclohexyl)amino]-3-pyridyl]-[4-(2,2,2-trifluoroethylamino)-7H-pyrrolo[2,3-d]pyrimidin-5-yl]methanone]
< 10 nM	< 100 nM	< 100 nM	O=C(c1ccc(NC2CCC(F)(F)CC2)nc1)c1c[nH]c2ncnc(NC3CC3)c12 [Compound P-4088, [4-(cyclopropylamino)-7H-pyrrolo[2,3-d]pyrimidin-5-yl]-[6-[(4,4-difluorocyclohexyl)amino]-3-pyridyl]methanone]
< 10 nM	< 10 nM	< 10 nM	O=C(c1ccc(Nc2ccc(C3CC3)nc2)nc1F)c1c[nH]c2ncnc(NC3CC3)c12 [Compound P-4093, [4-(cyclopropylamino)-7H-pyrrolo[2,3-d]pyrimidin-5-yl]-[6-[(6-cyclopropyl-3-pyridyl)amino]-2-fluoro-3-pyridyl]methanone]
< 10 nM	< 100 nM	< 100 nM	Cc1ccc(Nc2ccc(C(=O)c3c[nH]c4ncnc(NC5CCCCC5)c34)c(F)n2)cn1 [Compound P-4111, [4-(cyclohexylamino)-7H-pyrrolo[2,3-d]pyrimidin-5-yl]-[2-fluoro-6-[(6-methyl-3-pyridyl)amino]-3-pyridyl]methanone]
< 10 nM	< 10 nM	< 10 nM	CNc1ncnc2[nH]cc(C(=O)c3ccc(Nc4ccc(C)nc4)nc3F)c12 [Compound P-4115, [2-fluoro-6-[(6-methyl-3-pyridyl)amino]-3-pyridyl]-[4-(methylamino)-7H-pyrrolo[2,3-d]pyrimidin-5-yl]methanone]
< 10 nM	< 10 nM	< 100 nM	CCc1ccc(Nc2ccc(C(=O)c3c[nH]c4ncnc(NC5CCOCC5)c34)c(F)n2)cn1 [Compound P-4116, [6-[(6-ethyl-3-pyridyl)amino]-2-fluoro-3-pyridyl]-[4-(tetrahydropyran-4-ylamino)-7H-pyrrolo[2,3-d]pyrimidin-5-yl]methanone]
< 10 nM	< 10 nM	< 10 nM	CCc1ccc(Nc2ccc(C(=O)c3c[nH]c4ncnc(NC(C)C)c34)c(F)n2)cn1 [Compound P-4117, [6-[(6-ethyl-3-pyridyl)amino]-2-fluoro-3-pyridyl]-[4-(isopropylamino)-7H-pyrrolo[2,3-d]pyrimidin-5-yl]methanone]
